Experiments:
[1] = Cytotoxicity on MT-2 cells (MTT); format: cell-based; details: human
Description: For each compound, cytotoxicity was evaluated on MT-2 cells. MT-2 cells were seeded at 3×10^4 cells/well in 96-well plates. […] After 5 days growth in a 37° C. incubator containing 5% CO2, MTT was added to a final concentration of 0.5 mg/ml and then incubated for four hours at 37° C. 10% SDS in 0.02 N HCl was added to lyse the cells overnight at 37° C. The plates were read on a Tecan Genius microplate reader at wavelengths of 570 nm/650 nm. The dose response curve was graphed by comparing the treated cells with the untreated control and the IC50 was determined for each compound.

[2] = Toxicology in SCID-Hu Thy/Liv mice; format: in vivo; details: up to 100 mg/kg/day subcutaneously, 21 days
Description: After completion of this toxicology experiment, SN1212 was tested in HIV infected SCID-Hu mice. […] The discordance between viral infectivity and conventional surrogate markers of viral load, such as p24 or HIV RNA, is not surprising, as it has also been observed in vitro, and reflects the increased proportion of non-infectious viral particles in the presence of SN1212. It is also interesting to note that, of the treated groups, the immunologic profile of the SN1212 groups most closely resemble that of the uninfected group. This is compatible with the finding that infection with less “fit” viruses provides a relative clinical benefit by preserving cellular immunity.

[3] = system: HIV-1 RTMC, with 67N, 70R, 215F and 219Q mutations; assay: Sensitivity of NRTI-resistant HIV strain RTMC, MT-2 cells; format: cell-based; details: Human immunodeficiency virus 1, MT2
Description: 0.1 ml of a 3×10^5 cells/ml MT-2 cell suspension were seeded in 96-well plates at 3×10^4 cells/well. The compounds to be assayed were diluted in a separate 96-well at ten times (10×) the concentration needed for the screen. 22 μl of the 10× compounds was then added to the wells in triplicate except for six control wells, containing uninfected MT-2 cells alone (3 wells) and untreated HIV-infected MT-2 cells (3 wells). This was followed by the addition of HIV-1 at an MOI of 0.01, except for the three wells serving as the uninfected control. 0.1 ml of cRPMI was added to the uninfected well instead of virus. After the addition of virus, the 96-well plate was centrifuged at 1,200×g for two hours to enhance the adsorption of the virus by the MT-2 cells (see, e.g., O'Doherty, J. Virol. 74:10074-10080 (2000)). After the centrifugation step, the 96-well plate was then incubated in a 37° C. incubator containing 5% CO2 for three days. At the end of this time period the virus and cells were mixed by gentle pipetting followed by a 1 minute spin at 600×g to pellet the cells. The supernatant of each well was then serially diluted 1,000-fold into new 96-well plates to serve as inoculum for the next passage and assayed by ELISA for the amount of p24 produced. The next passage was performed as described above, except that the virus used to infect the cells was derived from the 1,000-fold dilution plate.
To determine if there is resistance of HIV NRTI resistant strains to mutagenic nucleoside analogues, NRTI resistant strains were grown in the presence of 5-aza-dC to determine whether the EC50 for 5-aza-dC is different from the WT strain (HIV-1 LAI). […] Growth of HIV NRTI resistant strains in the presence of the appropriate concentration of NRTI was used as a positive control.
Three HIV NRTI resistant strains (HIV-1 LAI-M184V, HIV-1 RTMDR1, with 74V, 41L, 106A and 215Y mutations, and HIV-1 RTMC, with 67N, 70R, 215F and 219Q mutations) were used to test the effectiveness of 5-aza-dC. […] Mutations include: M41L, E44D, A62V, K65R, D67N, T69DN, T69S_SS, K70R, L74V, V75I, F77L, Y115F, F116Y, V118I, Q151M, M184V, L210W, T215F and K219QE.
The effectiveness of DHAdC was tested against wild-type HIV strains and NRTI resistant HIV strains as described in Example 2. The following strains were tested: HIV-1 LAI, wild-type; HIV-I LAI-M184V-M184V mutation with resistance to lamivudine (3TC); HIV-1 RTMDR1-74V, 41L, 106A and 215Y mutations with resistance to zidovudine, didanosine, nevirapine and other non-nucleoside reverse transcriptase inhibitors; and HIV-1 RTMC-67N, 70R, 215F and 219Q with resistance to zidovudine.

Q: For `NC1=NC(=O)N([C@H]2C[C@H](O)[C@@H](CO)O2)CN1` [DHAdC, 1-(2-Deoxy-β-D-ribofuranosyl)-4-amino-1,2,5,6-tetrahydro-1,3,5-triazin-2-one], which IC50 at 5 days [1] is on record?
A: > 1 mM

Q: What about the toxicity [2] of the same molecule?
A: without any significant toxicity

Q: And the EC50 [3]?
A: 6 µM

Source: patent publication US7772197B2, “1,3,5-triazines for treatment of viral diseases” (1,3,5-Triazines for Treatment of Viral Diseases, priority 2002, dated 2010)
